Data published in patent US20060106026A1, “4-(4-methylpiperazin-1-ylmethyl)-n-[4-pyridin-3-yl)pyrimidin-2-ylamino)phenyl]-benzamide for treating anaplastic thyroid cancer” (priority 2002, published 2006).
Like-named read-outs stand apart in the source and are kept apart here.

Key:
ARO = test system: ARO
From the text: (§1) Human anaplastic thyroid carcinoma cell lines FRO and ARO were used with respectively, undetectable or mutant p53 in codon 273 (Fagin et al., J. Clin. Invest. 1993, 91:179-184). Human papillary carcinoma cell line NPA has p53 mutations in codons 223 and 226 (Fagin et al., J. Clin. Invest. 1993, 91:179-184), while TPC-1 and KTC-1 papillary thyroid carcinoma cell lines are wild type for p53 (Kurebayashi et al., J. Clin. Endocrinol. Metab. 2000, 85:2889-96). Stable transfection with a vector expressing wild type p53 was used to produce the 1F3 cell line from FRO cells (Zeki et al., Int. J. Cancer, 1998, 75:391-5). […] Primary human thyroid cell cultures were established as described previously (Kawabe et al., J. Clin. Endocrinol. Metab., 1989, 68:1174-83) and maintained in a 2:1 mixture of F12 Nutrient Mixture and DEM, supplemented with 3% fetal bovine serum and penicillin-streptomycin (all reagents from Invitrogen Life Technologies, Paisley, UK).
(§2) The kinetics of cell growth were examined using a cytometer as follows: cells were seeded at a density of 0.5 or 0.1×10^5 cells per well in 12-well culture plates. […] Both experiments were performed at least three times.

NPA = test system: NPA
From the text: as §1, §2

TPC-1 = conditions: read-out: IC50 values, mean (50% reduction in cell growth); TPC-1, 72 h of incubation, n=3
From the text: as §1, §2

primary thyrocytes (PT) = conditions: read-out: IC50 values, mean (50% reduction in cell growth), 72 h of incubation, n=3
From the text: as §1, §2

KTC-1 = conditions: read-out: IC50 values, mean (50% reduction in cell growth); KTC-1, 72 h of incubation, n=3
From the text: as §1, §2

FRO = test system: FRO
From the text: as §1, §2

[1] = read-out: IC50 (cytostatic effect)
[2] = read-out: IC50 values, mean (50% reduction in cell growth), 72 h of incubation, n=3

`CS(=O)(=O)O.Cc1ccc(NC(=O)c2ccc(CN3CCN(C)CC3)cc2)cc1Nc1nccc(-c2cccnc2)n1` [SALT I, 4-[(4-methyl-1-piperazin-1-ylmethyl)-N-[4-methyl-3-[[4-(3-pyridinyl)-2-pyrimidinyl]amino]phenyl]benzamide methanesulfonate] showed an IC50 (ARO; [1]) of 5.9 µM, an IC50 (ARO; [2]) of 8.1 µM and an IC50 (NPA; read-out: IC50, as stated in the discussion, NPA cells) of 16 µM. It also gave an IC50 (NPA; read-out: IC50 values, mean (50% reduction in cell growth), NPA, 72 h of incubation, n=3) of 15.6 µM, an IC50 (TPC-1) of 29.5 µM and an IC50 (primary thyrocytes (PT)) of 24.7 µM. The IC50 (KTC-1) was 22.6 µM, the IC50 (FRO; [1]) was 7.8 µM and the IC50 (FRO; [2]) was 6.4 µM.
